Measured values published in PubChem BioAssay AID1963428 (Molecular Pharmacology Branch, DTP, NCI, 2024).

System: 171881-019-R-J1-PDC complex spheroid growth, % test/control
Assay: Anticancer human tumor 171881-019-R-J1-PDC patient-derived invasive breast carcinoma cell line growth inhibition [Asc]
Conditions: for IC50: curve of first compound; for viability, T/C: stronger effect = lower value
In short: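 Spheroid model: tumor line + HUVEC + hMSC. Single agents and combinations; top conc. at/near clinical Cmax (10 microM if undetermined), half-log dilutions. DMSO stocks at 800-fold test concentration.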

[1] = second compound 0.03 µM, first compound 0.0316 µM
[2] = second compound 0.03 µM, first compound 0.1 µM
[3] = second compound 0.03 µM, first compound 0.316 µM
[4] = second compound 0.03 µM, first compound 1 µM
[5] = second compound 0.03 µM, first compound 3.16 µM
[6] = second compound 0.03 µM, first compound 10 µM
[7] = second compound 0.0949 µM, first compound 0.0316 µM
[8] = second compound 0.0949 µM, first compound 0.1 µM
[9] = second compound 0.0949 µM, first compound 0.316 µM
[10] = second compound 0.0949 µM, first compound 1 µM
[11] = second compound 0.0949 µM, first compound 3.16 µM
[12] = second compound 0.0949 µM, first compound 10 µM
[13] = second compound 0.3 µM, first compound 0.0316 µM
[14] = second compound 0.3 µM, first compound 0.1 µM
[15] = second compound 0.3 µM, first compound 0.316 µM
[16] = second compound 0.3 µM, first compound 1 µM
[17] = second compound 0.3 µM, first compound 3.16 µM
[18] = second compound 0.3 µM, first compound 10 µM
[19] = second compound 0.949 µM, first compound 0.0316 µM
[20] = second compound 0.949 µM, first compound 0.1 µM
[21] = second compound 0.949 µM, first compound 0.316 µM
[22] = second compound 0.949 µM, first compound 1 µM
[23] = second compound 0.949 µM, first compound 3.16 µM
[24] = second compound 0.949 µM, first compound 10 µM
[25] = second compound 3 µM, first compound 0.0316 µM
[26] = second compound 3 µM, first compound 0.1 µM
[27] = second compound 3 µM, first compound 0.316 µM
[28] = second compound 3 µM, first compound 1 µM
[29] = second compound 3 µM, first compound 3.16 µM
[30] = second compound 3 µM, first compound 10 µM
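For viability, T/C in this document: spheroids exposed to compounds for 7 days.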

SMILES	IC50 (second compound 0.03 µM) [µM]	IC50 (second compound 0.0949 µM) [µM]	IC50 (second compound 0.3 µM) [µM]	IC50 (second compound 0.949 µM) [µM]	IC50 (second compound 3 µM) [µM]	viability, T/C [1] [%]	viability, T/C [2] [%]	viability, T/C [3] [%]	viability, T/C [4] [%]	viability, T/C [7] [%]	viability, T/C [8] [%]	viability, T/C [9] [%]	viability, T/C [10] [%]	viability, T/C [13] [%]	viability, T/C [14] [%]	viability, T/C [15] [%]	viability, T/C [16] [%]	viability, T/C [19] [%]	viability, T/C [20] [%]	viability, T/C [21] [%]	other results
C#Cc1c(F)ccc2cc(O)cc(-c3ncc4c(N5CC6CCC(C5)N6)nc(OCC56CCCN5CC(F)C6)nc4c3F)c12 (stereo not given) + CCN1C(C(=O)NC23CCC(C(=O)O)(CC2)CC3)C(c2cccc(Cl)c2F)C2(C(=O)Nc3cc(Cl)ccc32)C12CCCCC2	> 10	> 10	> 10	> 10	> 10	120	116	136	192	117	117	158	208	120	127	127	204	116	123	146	viability, T/C [5]: 204%; viability, T/C [6]: 170%; viability, T/C [11]: 241%; viability, T/C [12]: 211%; viability, T/C [17]: 213%; viability, T/C [18]: 188%; viability, T/C [22]: 229%; viability, T/C [23]: 210%; viability, T/C [24]: 174%; viability, T/C [25]: 125%; viability, T/C [26]: 156%; viability, T/C [27]: 216%; viability, T/C [28]: 218%; viability, T/C [29]: 172%; viability, T/C [30]: 154%
C=C(F)C(=O)N1CCN(c2nc(OCC3CCCN3C)nc3c2CCN(c2cccc4cccc(Cl)c24)C3)CC1CC#N (stereo not given) + CCN1C(C(=O)NC23CCC(C(=O)O)(CC2)CC3)C(c2cccc(Cl)c2F)C2(C(=O)Nc3cc(Cl)ccc32)C12CCCCC2	5.96	5.86	6.18	5.79	6	107	105	104	110	99.9	107	112	108	117	105	112	120	118	120	108	viability, T/C [5]: 122%; viability, T/C [6]: 1.23%; viability, T/C [11]: 110%; viability, T/C [12]: 0.23%; viability, T/C [17]: 141%; viability, T/C [18]: 0.58%; viability, T/C [22]: 111%; viability, T/C [23]: 104%; viability, T/C [24]: 0.88%; viability, T/C [25]: 108%; viability, T/C [26]: 103%; viability, T/C [27]: 107%; viability, T/C [28]: 113%; viability, T/C [29]: 128%; viability, T/C [30]: 0.37%
C=CC(=O)N1CCN(c2nc(=O)n(-c3c(C)ccnc3C(C)C)c3nc(-c4c(O)cccc4F)c(F)cc23)C(C)C1 (stereo not given) + CCN1C(C(=O)NC23CCC(C(=O)O)(CC2)CC3)C(c2cccc(Cl)c2F)C2(C(=O)Nc3cc(Cl)ccc32)C12CCCCC2	> 10	> 10	> 10	> 10	> 10	103	102	100	96.8	93.5	91.7	107	112	116	105	105	109	96.5	104	116	viability, T/C [5]: 102%; viability, T/C [6]: 103%; viability, T/C [11]: 94.4%; viability, T/C [12]: 109%; viability, T/C [17]: 107%; viability, T/C [18]: 90.7%; viability, T/C [22]: 106%; viability, T/C [23]: 106%; viability, T/C [24]: 116%; viability, T/C [25]: 94.2%; viability, T/C [26]: 112%; viability, T/C [27]: 103%; viability, T/C [28]: 97%; viability, T/C [29]: 99.8%; viability, T/C [30]: 107%
CNC(C)C(=O)NC1CN(S(=O)(=O)c2cccc(S(=O)(=O)N3CCC4CCC(C(=O)NC(c5ccccc5)c5ccccc5)N4C(=O)C(NC(=O)C(C)NC)C3)c2)CCC2CCC(C(=O)NC(c3ccccc3)c3ccccc3)N2C1=O (stereo not given) + CCN1C(C(=O)NC23CCC(C(=O)O)(CC2)CC3)C(c2cccc(Cl)c2F)C2(C(=O)Nc3cc(Cl)ccc32)C12CCCCC2	> 1	> 1	> 1	> 1	> 1	99.1	93.3	93.7	93	94.5	91.7	109	90.2	103	109	93.5	100	113	88.5	109	viability, T/C (second compound 0.03 µM, first compound 0.00316 µM): 91.6%; viability, T/C (second compound 0.03 µM, first compound 0.01 µM): 103%; viability, T/C (second compound 0.0949 µM, first compound 0.00316 µM): 118%; viability, T/C (second compound 0.0949 µM, first compound 0.01 µM): 96.8%; viability, T/C (second compound 0.3 µM, first compound 0.00316 µM): 113%; viability, T/C (second compound 0.3 µM, first compound 0.01 µM): 103%; viability, T/C (second compound 0.949 µM, first compound 0.00316 µM): 109%; viability, T/C (second compound 0.949 µM, first compound 0.01 µM): 107%; viability, T/C [22]: 102%; viability, T/C (second compound 3 µM, first compound 0.00316 µM): 102%; viability, T/C (second compound 3 µM, first compound 0.01 µM): 115%; viability, T/C [25]: 106%; viability, T/C [26]: 90.3%; viability, T/C [27]: 100%; viability, T/C [28]: 96%
